{"source": "patent US5962456A", "about": "“N-acylpiperazine derivative, anti-ulcer drug, and antibacterial drug” (Shiseido Co., Ltd., priority 1996, dated 1999)", "assay": "MTT: Cell Damaging and Protecting Effect Test", "type": "cell-based, rabbit (male Japanese White)", "conditions": "rabbit, gastric corpus mucosa cells, final concentration 10^-4 M, smaller value is better, read-out: MTT cell damaging rate", "from_the_text": "MTT: Cell Damaging and Protecting Effect Test\nIt is confirmed that there is no toxicity in cell level. Those having a toxicity in cell level are inappropriate as an anti-ulcer drug.\nA male Japanese White rabbit (2.5 to 3 kg) was anesthetized to death by Nembutal™ and, immediately thereafter, its stomach was removed. The greater curvature of the stomach was incised so as to remove the stomach contents therefrom. After the mucosal surface was washed with HBSS (Hanks' Balanced Salt Solution), the stomach in ice-cooled HBSS was transferred to a laboratory. Then, after the pyloric antrum was removed, the gastric corpus mucosa was separated by a spatula and then minced into 2 to 3 mm^3 pieces in BME (Basal Medium Eagle). Thereafter, these pieces were shaken at 120 to 130 cycles/minute for 15 minutes at 37° C. in BME 60 ml containing 280 U/ml of dispase and 30 to 50 U/ml of collagenase. Here, the concentration of collagenase was appropriately changed for each lot in view of the state of cells. The pieces were washed twice with EBSS (Earle's Balanced Salt Solution) containing 1 mM of EDTA and then shaken in MEM (Minimum Essential Medium) containing 1 mM of EDTA at 37° C. for 5 minutes. Subsequently, they were shaken in the dispase and collagenase having the same concentrations as those mentioned above for 15 minutes so as to remove the supernatant and then further shaken at 37° C. for 50 to 60 minutes at 120 to 130 cycles/minute. Then, after being washed twice with HBSS, Ham F12 containing 2% of Ultrocer G™ was used to attain the concentration of 1×10^6 cells/ml. Thus formed suspension was dispensed in each well of a 96-well plate by 200 μl. The plate was incubated in the atmosphere composed of 5% CO2 and 95% air at 37° C. for three days so as to attain a confluent state and then subjected to MTT assay.\nThe sample compound was dissolved in DMSO so as to attain a concentration of 10^-2 M and then diluted with HBSS containing 2% of Ultrocer G™ so as to attain a final concentration of 10^-4 M. To each group, which 8 wells were used for, 10 μl of MTT reagent was added immediately after 100 μl of the medium in each well was exchanged for same volume of the resulting solution of the sample compound. After being incubated in an atmosphere composed of 5% CO2 and 95% air at 37° C. for 4 hours, thus formed solution was centrifuged and then its supernatant was discarded. Subsequently, 100 μl of 100% ethanol was added to the residue so as to dissolve MTT formazan. Then, the absorbance (OD: 570 to 630) was measured by a microplate reader. This method utilizes a phenomenon in which MTT is changed to MTT formazan only by mitochondria of living cells so as to change color.\nThe cell damaging or cell protecting effect of the sample compound at the final concentration of 10^-4 M was expressed as cell damaging rate (%) as follows:\ncell damaging rate (%)=(1-(absorbance in sample group/absorbance in control group))×100\nAccordingly, the smaller rate value is better in the cell damage."}
{"smiles": "CC(C)=CCC/C(C)=C/COc1ccc(C(=O)N2CCN(CCNC(=O)c3ccc4c(c3)OCO4)CC2)cc1", "note": "[Example 1, 1-(4-geranyloxy)benzoyl-4-[2-(piperonyloylamino)ethyl]piperazine]", "values": [{"measurement": "cytotoxicity at 4 h, 100 µM", "result": 21, "unit": "%"}]}
